In US20170131285A1, “METHODS AND COMPOSITIONS FOR DIAGNOSING, MONITORING AND TREATING CANCER” (INSERM (Institut National de la Sante et de la Recherche …, priority 2014, published 2017):
Where no end group is shown, it is not given here.

What was measured:
[1] = test system: membrane HSP70 on tumor-derived exosomes (B16F10, HCT116); test: BLI binding of tumor-derived exosomes to immobilized biotinylated A8, with or without cmHSP70
Protocol: FIG. 1: Tumor-derived exosomes in cancer patient′ samples express HSP70. (A) The binding of exosomes (10^6), derived from the B16F10, HCT116 cell lines, with or without previous incubation with cmHSP70, to immobilized biotinylated A8 was determined by biolayer interferometry. (B) Association curves of HSP70-exosomes in patients' urines (1 breast, 1 pulmonary) or healthy individuals (controls) with biotinylated A8 immobilized on streptavidin sensor tips. Curves represent mean values of triplicate measurements for each concentration. (C) Exosomes expressing HSP70 were determined by FACS in urine samples from healthy individuals (n=5) and cancer metastatic cancer patients (5 breast, 4 pulmonary). The bar graph presents the means and standard deviations of the vesicle concentrations. (D) Nanoparticle Tracking Analysis (NTA) to quantify total number of exosomes in urine human samples (urines) described above. Samples were diluted in PBS and analyzed using a NanoSight LM10 instrument. Inset values represent the total number of exosomes counted 10̂^9/ml.
Protein-protein interaction experiments were conducted at 25° C. in PBS with an Octet Red instrument (Forte Bio, Menlo Park, Calif., USA) by biolayer interferometry (BLI). […] Each KD was determined with a 1:1 stoichiometry model using a global fit with Rmax unlinked by sensor (Forte Bio, Data analysis software version 7.1.0.89). […]

EL4 tumors = test: EL4 lymphoma tumor model in C57BL6 mice; type: in vivo, mouse
Protocol: FIG. 10: A8 anti-tumor effect in mice is associated with an increased anti-tumor immune response. Mice were s.c. injected with EL4 cells (7·10^5). On day 5, animals were treated every two days until the end of the experiment with either A0 (control aptamer) or A8 (3 mg/kg, i.p. injection). On day 6, half the animals were i.p. treated with a single dose of 5-fluorouracil (5FU, 25 mg/kg). A) At day 10, the percentage of MDSC (Gr1^+ CD11b^+) cells in the spleen collected from the different groups of mice was analyzed by flow cytometry (6 animals per group). As a negative control (Ctl) we used animals with no tumors. B) Tumor size was measured every two days (6 animals per group; n=3). The open symbols represent animals treated with 5FU. T test: *, p<0.05, **, p<0.01, (n=3). C) EL4 tumor sections were performed 10 days after injection of A8. Dendritic cells and macrophages were labeled using, CD11c and F4/80 antibodies. A representative image is shown (n=6 per group). Labeled cells were counted from 300 cells chosen randomly in different microscopic fields.
Animals were killed 15 or 18 days after cell injection. The site of tumor cell injection was resected and snap-frozen in liquid nitrogen. An immunohistochemical study of tumor-infiltrating inflammatory cells was performed on acetone-fixed 5 μm cryostat sections. Tumoral biopsies were blocked in PBS with 3% of BSA (10 min, RT) anti-CD11c (1/50, monoclonal, BD Pharmingen), anti-CD3 (1/50, monoclonal, BD Pharmingen), anti-F4/80 (1/100, monoclonal, BD Pharmingen), diluted in PBS with 1% of BSA, was added on slides and incubated 45 minutes at RT, after washing with PBS. Nuclei were colored with mounting medium: Prolong Gold with Dapi (Molecular Probe). […] Images were acquired using an AxioCam MRm monochrome CCD camera (Carl Zeiss GmbH). Six pictures were taken in random fields for each labeling, and analyzed using image J software.
To confirm A8 in vivo results shown in FIG. 5, the inventors have used another syngeneic model: lymphoma EL4 tumors developed in C57BL6 mice. […]

SPWPRPTY [Aptamer A8, SPWPRPTY]
ability of cmHSP70 to bind to HSP70 (competition) [1]: in a dose dependent manner, decreased the ability of cmHSP70 to bind to HSP70
capture of exosomes through interaction with membrane-HSP70 ([1]; immobilized biotinylated A8, exosomes (10^6)): efficiently captured exosomes
tumor infiltration by immune cells (EL4 tumors): strongly infiltrated by different immune cells
number of MDSC in the spleen (EL4 tumors; A8 3 mg/kg i.p. every two days, day 10): a decrease in the number of MDSC in the spleen
size of the tumors (EL4 tumors; A8 3 mg/kg i.p., with or without single dose 5FU 25 mg/kg i.p.): a decrease in the size of the tumors mainly when added in combination to 5FU
